The results in this text go back to US20050065348A1, “Pyridin-2-yl-methylamine derivatives for treating opioid dependence” (priority 2001, published 2005).

Counter-ions that a name gives are not always drawn.

Assay [1] deals with morphine withdrawal syndrome (hyperalgesia). In words: Effects on morphine dependence: naloxone-precipitated withdrawal hyperalgesia (Randall and Selitto nociceptive thresholds). Format: in vivo. To be noted: rat, s.c. osmotic mini-pumps 2 weeks.
Description: The products are administered by means of osmotic mini-pumps (model 2ML2; flow rate 5 μl/hr: Alza Corporation, Palo Alto, USA) implanted subcutaneously on the first day of the experiment and extracted two weeks later. The pump is set in place through a transversal incision made in the skin of the dorsal face of the rat, the liberation orifice being directed towards the head.
The compound F is administered at 0.63 mg/rat/day (5.25 mg/ml) in solution in distilled water. […] The pumps implanted in the control animals release 0.12 ml of 0.9% NaCl (saline)/rat/day; the doses referring to the weight of the non salified compound.
The study consists of two phases: a phase of chronic treatment lasting 2 weeks, and a withdrawal phase lasting 1 week.
On the experiment's first day the rats were given implants of two osmotic mini-pumps.
After two weeks of chronic treatment, the withdrawal phase began. After taking base measurements on day 14, all the animals received a sub-cutaneous injection of naloxone at 0.63 mg/kg. Next, 30 minutes, 1 hr, 2 hr, 4 hr, and 8 hr after the injection, another series of measurements was taken. The pumps were extracted after the last measurement at 8 hr after the naloxone injection. A series of measurements was also taken daily 24 hr to 4 days after the naloxone injection. During this withdrawal period, the nociceptive thresholds were measured using the Randall and Selitto method (Arch. Int. Pharmacodyn. 1957, CXI, 409) in which increasing pressure is applied to the back paw until the vocalisation threshold is reached. The results are expressed in grams and a 750 g limit is imposed.
In order to evaluate the nociceptive thresholds, the areas under the curves (AUCs) were determined and processed by a variance analysis (ANOVA). The post-hoc comparisons (i.e. those following the variance analysis when the latter is significant) were made using the Student-Newman-Keuls (SNK) test for comparing groups with each other. A statistically significant effect was defined at p<0.05.
For a further assay, the target named is T1, 5-HT1A receptor (Rattus norvegicus, UniProt P19327).
T1 construct: Tissue: cerebral cortex of rat; from tissue; host or cells: rat cerebral cortex
T1 sequence (P19327 1-422): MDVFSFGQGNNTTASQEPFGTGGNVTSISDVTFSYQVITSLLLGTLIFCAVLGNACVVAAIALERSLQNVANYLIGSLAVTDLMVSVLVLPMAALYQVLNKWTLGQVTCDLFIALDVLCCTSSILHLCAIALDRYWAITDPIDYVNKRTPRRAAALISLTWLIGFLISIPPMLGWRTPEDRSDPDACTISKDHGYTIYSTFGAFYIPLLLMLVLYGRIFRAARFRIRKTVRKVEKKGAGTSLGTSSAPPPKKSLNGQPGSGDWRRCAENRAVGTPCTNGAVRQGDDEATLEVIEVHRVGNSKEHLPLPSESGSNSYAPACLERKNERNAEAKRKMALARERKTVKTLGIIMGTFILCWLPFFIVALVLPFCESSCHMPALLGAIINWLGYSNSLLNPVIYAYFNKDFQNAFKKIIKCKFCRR
In words: Affinity for the 5-HT1A receptor (3H-8-OH-DPAT displacement). The settings on record: Tissue: cerebral cortex of rat, average of at least 3 experiments. Format: binding. The protocol: Measurement of the affinity of compound F and reference products for the 5-HT1A receptor
Study of the bond with the 5-HT1A receptor was carried out according to a standard method (Naunyn-Schmiedeberg's Arch. Pharmaco. 1991, 343, 106). The inhibition constants (Ki) of the products according to the invention were estimated from displacement experiments using the version 4 RADLIG non-linear regression programme of EBDA (Equilibrium Binding Data Analysis) (Biosoft, Cambridge, UK, Mc Pherson, 1985). The dissociation constants of the radioactive ligands used in the calculations are 0.31 nmole for ^3H-8-OH-DPAT. The values of pKi (−logKi) are provided under the form of average±SEM of at least 3 experiments.

In the case of `Cc1ccc(CNCC2(F)CCN(C(=O)c3ccc(F)c(Cl)c3)CC2)nc1` [compound F, (3-Chloro-4-fluorophenyl)-(4-fluoro-4-{[(5-methyl-pyridin-2-yl-methyl)-amino]-methyl}-piperidin-1-yl)-methadone fumarate], in assay [1] (co-treatment morphine 5 mg/rat/day + compound 0.63 mg/rat/day, naloxone 0.63 mg/kg s.c., SNK p>0.05), the “AUC of nociceptive thresholds 30 minutes to 4 days after naloxone, versus control animals” value is on record as “statistically comparable with those obtained from the control animals”. The “AUC of nociceptive thresholds 30 minutes to 4 days after naloxone, compound alone versus control animals” value in assay [1] (saline + compound 0.63 mg/rat/day, no morphine, p>0.05) is listed as “does not induce an effect on its own”. For the same molecule, the “pKi site 5-HT1A” value on 5-HT1A receptor was 9.07.
Turning to `Clc1cnn(CCCCN2CCN(c3ncccn3)CC2)c1` [lesopitron, reference compound], in assay [1] (co-treatment morphine 5 mg/rat/day + compound 2.5 mg/rat/day, naloxone 0.63 mg/kg s.c., SNK p<0.05 vs control), the “Effect on hyperalgesia / morphine withdrawal syndrome (AUC of nociceptive thresholds)” value is on record as “did not have any detectable effect on the hyperalgesia”. Further, the Ki at 5-HT1A receptor (read-out: pKi site 5-HT1A (converted)) is 55 nM.
